Measured values from patent publication US12121498B2 (priority 2018, dated 2024).

Key:
[1] = molecular target: GABAA, Chloride Channel, TBPS; assay: Radioligand ([35S]TBPS)-receptor competitive binding assay for GABAA receptor; set-up: species or system Rat; conditions: for IC50: [35S]TBPS, test concentration 30, 10, 3, 1, 0.3 uM; for Affinity for the GABAA receptor: result in words, compared with dipropofol
in vivo = type: in vivo, SD rats; conditions: rats; for concentration at 5 min / concentration at 15 min / concentration at 30 min / concentration at 1 h / concentration at 2 h / concentration at 4 h: SD, rat, in vivo, iv, average, read-out: Drug concentrations in brain tissue; for concentration at 5 min: 5 min after administration; for concentration at 15 min: 15 min after administration; for concentration at 30 min: 30 min after administration; for concentration at 1 h: 1 h after administration; for concentration at 2 h: 2 h after administration; for concentration at 4 h: 4 h after administration
Procedure: 1. Comparative Assay for the Distribution of Compound XA-1-7 and Dipropofol (3,3′,5,5′-Tetraisopropyl Biphenyl-4,4′-Diol) in the Brain Tissue of Rats after Intravenous Administration
72 SD rats, each weighing 200 to 220 g, were randomly divided into 12 groups (6 per group at a time), and fasted for 12 hours before administration. Compound XA-1-7 or dipropofol was injected intravenously at a dose of 45 mg/kg, and the rats were sacrificed at 5 min, 15 min, 30 min, 1 h, 2 h, and 4 h after administration, immediately after which the brain tissue was removed, rinsed with ice-cold distilled water, blotted up, and cryopreserved at −40° C. The concentrations of Compound XA-1-7 or dipropofol in the brain tissue of rats at different time points after administration were measured by LC-MS/MS.

Compound	IC50 [1] [nM]	Affinity for the GABAA receptor [1]	concentration at 5 min (in vivo; i.v. 45 mg/kg) [ng/g]	concentration at 15 min (in vivo; i.v. 45 mg/kg) [ng/g]	concentration at 30 min (in vivo; i.v. 45 mg/kg) [ng/g]	concentration at 1 h (in vivo; i.v. 45 mg/kg) [ng/g]	concentration at 2 h (in vivo; i.v. 45 mg/kg) [ng/g]	concentration at 4 h (in vivo; i.v. 45 mg/kg) [ng/g]	Concentration in the brain tissue relative to that of the dipropofol (in vivo; 5 minutes after intravenous injection, 45 mg/kg)	AUC0-4 h in the brain tissue relative to that of the dipropofol (in vivo; i.v. 45 mg/kg)	Peak time of the concentration in the brain tissue (in vivo; i.v. 45 mg/kg) [min]	Delivering speed into the brain and level in the brain compared with dipropofol (in vivo; intravenous administration at the same dosage, result in words)
CCCc1cc(-c2cc(C(C)C)c(O)c(C(C)C)c2)cc(CCC)c1O [Compound 1, 3,5-diisopropyl-3′,5′-dipropyl-[1,1′-biphenyl]-4,4′-diol]	1820	high affinity	37600	39600	38100	33900	24600	6870	about 3 times	about 1.36 times	15	significantly higher
CCCc1cc(-c2cc(C(C)C)c(O)c(C(C)C)c2)cc(C(C)C)c1O [Compound 2, 3,3′,5-triisopropyl-5′-propyl-biphenyl-4,4′-diol]	2110	high affinity										
CCCc1cc(-c2cc(CCC)c(O)c(C(C)C)c2)cc(CCC)c1O [Compound 3, 3-isopropyl-3′,5,5′-tripropyl-biphenyl-4,4′-diol]	2690	high affinity										
CC(C)c1cc(-c2cc(C(C)C)c(O)c(C(C)C)c2)cc(C(C)C)c1O [Dipropofol, 3,3′,5,5′-tetraisopropylbiphenyl-4,4′-diol, reference compound]	2060		12800	24100	32500	26600	17900	5520			30	
